Source: patent US10842794B2, “Use of Sigma-1 receptor agonist compounds” (MTA TÁMOGATOTT KUTATÓCSOPORTOK IRODÁJA, priority 2014, dated 2020)

Assays:
[1] = tested on: collagen I and collagen III mRNA in NRK49F cells; assay: TGFβ-induced collagen-1 and collagen-3 production, quantitative RT-PCR; assay type: cell-based, rat; conditions: 20 μM/L fluvoxamine
[2] = tested on: FN1, COL1A1 and MMP2 mRNA in HTM-5 cells; assay: Fibrotic marker mRNA expression in HTM-5 cells (RT-PCR); assay type: cell-based, human; conditions: normalised to RN18S
[3] = tested on: human trabecular meshwork-5 (HTM-5) cells; assay: Actin cytoskeleton rearrangement in HTM-5 cells (phalloidin F-actin staining); assay type: cell-based; conditions: 24 h, 20 ng/mL PDGF and 10 μM FLU
NRK49F myofibroblasts = conditions: all applied concentrations, even the smallest 1 μM
Method: In 6-well plates of NRK49F myofibroblasts (6×10^6 cells/well) TGF-β (1 nM) induced production of fibrillar components of the extracellular matrix was measured by Sirius Red staining. To investigate the effect of S1R agonist compounds a group of cells was treated for 48 hours with the various S1R agonists. Solvent treated cells served as controls. (Bars represent mean±SEM)
To investigate the deposition of fibrillar collagen Sirius Red staining was performed. 48 hours after the treatment with TGF-β and said compounds the NRK-49F cells were incubated for 10 minutes with Kahle fixative solution. 0.1% Sirius Red (Direct Red 80, Sigma-Aldrich) in 1.2% picric acid was added for each well and plates were incubated for 30 minutes at RT. The unconnected dye molecules were washed with distilled water. The bound Sirius Red dye was eluated with 0.1 M NaOH solution, absorbance was recorded at 540 nm in a Hidex Chameleon Microplate Reader (Triathler, Plate Chameleion, 300SL Lablogic Systems, Inc., Brandon, Fla., USA) used MikroWin program. Vehicle treated cells served as controls.

[4] = tested on: Streptozotocin induced type 1 diabetic rats; assay: Diabetic rat kidney: Sirius Red staining of ECM components; assay type: in vivo; conditions: long term 7-weeks fluvoxamine treatment
[5] = tested on: Streptozotocin induced type 1 diabetic rats; assay: Diabetic rat kidney: fibronectin staining; assay type: in vivo; conditions: fluvoxamine 20 mg/bwkg/day for 2 weeks from the 5th week of diabetes
[6] = tested on: Streptozotocin induced type 1 diabetic rats; assay: Rat model of streptozotocin induced diabetic nephropathy: metabolic and renal parameters; assay type: in vivo; conditions: for Blood Creatinine / Blood Glucose / Blood Urea Nitrogen / FeNa / Fructosamine / GFR / Urinary albumin excretion: Mean±SEM
Method: All substances were purchased from Sigma-Aldrich Ltd. (Budapest, Hungary). Diabetes was induced in male Wistar rats by 65 mg/bwkg streptozotocin (STZ) i.v. (dissolved in 0.1 M citrate buffer; pH 4.5). Animals were considered diabetic if blood glucose concentrations increased to 15 mmol/L within 72 h after STZ injection and remained elevated. Animals were randomly divided into groups (n=10-12/group) and received by per os (i) fluvoxamine (20 mg/bwkg/day) for 7 weeks; (ii) fluvoxamine (20 mg/bwkg/day) for 2 weeks from the 5th week of diabetes, (iii) fluvoxamine (2 mg/bwkg/day) for 2 weeks from the 5th week of diabetes; or (iv) vehicle (isotonic saline). […] Non-diabetic age-matched control animals were injected with citrate buffer and sacrificed after 7 weeks (n=8-10/group).
Before and during and at the end of treatment period rats were placed into metabolic cages to collect 24-hour urinary samples. After 2 weeks of treatment all rats were anesthesized, blood and urinary samples were collected and the kidneys were removed, weighed and a section fixed in formalin (4%, pH=7.4) for histology and the remained immediately snap-frozen for further investigations.
Serum metabolic (glucose, fructoseamine, total and HDL-cholesterol, triglycerides) and renal functional parameters from rat serum (sodium, potassium, creatinine, BUN, GFR and proteinuria) were determined with commercially available kits on a Hitachi 912 photometric chemistry analyzer. Random urine and 24-hour urine samples were also measured. Urinary protein to creatinine ratio was also calculated.

[7] = tested on: mice with unilateral ureter obstruction (UUO); assay: Mice model of unilateral ureteral obstruction (UUO): Masson's trichrome, tubulointerstitial fibrosis; assay type: in vivo; conditions: fluvoxamine 20 mg/bwkg/day for one week, 7 days after UUO
[8] = tested on: rat model of bleomycin-induced lung fibrosis; assay: Rat model of bleomycin induced pulmonary fibrosis: Masson trichrome staining of lung; assay type: in vivo; conditions: fluvoxamine 20 mg/bwkg/day per os
Method: Masson trichrome staining of tissue sections was performed Bars represent Mean±SEM, n=6/group). Specifically:
For the induction of pulmonary fibrosis male Wistar rats were anesthetized. Bleomycin (5 mg/bwkg in a 300 μl solution of isotonic saline) or 300 μl isotonic saline was administered into the trachea using a 30G needle.
Animals were randomly divided into 4 groups of 6 rats each as follows (i)—control group was sham operated, received isotonic saline per os daily for 3 weeks, (ii) vehicle treated group: received isotonic saline per os daily for 3 weeks after the induction of lung fibrosis, (iii) fluvoxamine treated group: received fluvoxamine (20 mg/bwkg/day per os for 3 weeks after the induction of lung fibrosis), (iv) fluvoxamine+NE100 treated group: received fluvoxamine (20 mg/bwkg/day; per os) and 1 mg/bwkg/day NE100 (i.p. for 3 weeks after the induction of lung fibrosis. […]
The stained sections were viewed and photographed with Pannoramic 250 Flash and Pannoramic Viewer 1.15.2 (3D HISTECH Ltd. Budapest, Hungary) Adobe Photoshop 13.0 and Scion Image for Windows software were used for the analysis. […] Finally these ratios were statistically analyzed in all of the treatment groups.

[9] = tested on: mice with unilateral ureter obstruction (UUO); assay: Mice model of UUO: αSMA protein in kidney, western blot; assay type: in vivo; conditions: one week fluvoxamine treatment 20 mg/bwkg/day
[10] = tested on: Streptozotocin induced type 1 diabetic rats; assay: Diabetic rat kidney: PAS staining, mesangial matrix expansion; assay type: in vivo
[11] = D7FLU: diabetic rats, fluvoxamine 20 mg/bwkg/day per os for 7 weeks
[12] = D+FLU2: diabetic rats, fluvoxamine 2 mg/bwkg/day per os for 2 weeks from the 5th week of diabetes
[13] = D+FLU: diabetic rats, fluvoxamine 20 mg/bwkg/day per os for 2 weeks from the 5th week of diabetes

Question: With `COCCCC/C(=N\OCCN)c1ccc(C(F)(F)F)cc1` [fluvoxamine, 2-{[(E)-{5-Methoxy-1-[4-(trifluoromethyl)phenyl]pentylidene}amino]oxy}ethanamine] as the compound, how does the “mRNA expression of collagen-1 and collagen-3” value ([1]; by 24 hours) read?
Answer: remarkably diminished

Question: What about the “collagen production (collagen-1 and collagen-3 mRNA)” value ([1]; by 48 hours) of the same compound?
Answer: returned to the level of normal controls

Question: And the “COL1A1 (collagen1a1) mRNA expression” value ([2]; 20 ng/ml PDGF plus 5 μM FLU)?
Answer: inhibit the expression of each fibrosis marker tested in a dose dependent manner

Question: And the “FN1 (fibronectin) mRNA expression” value ([2]; 20 ng/ml PDGF plus 5 μM FLU)?
Answer: inhibit the expression of each fibrosis marker tested in a dose dependent manner

Question: And the “MMP2 (matrix metalloproteinase 2) mRNA expression” value ([2]; 20 ng/ml PDGF plus 10 μM FLU)?
Answer: inhibit the expression of each fibrosis marker tested in a dose dependent manner

Question: And the “fibrotic rearrangement and active production of actin filaments” value [3]?
Answer: blocked

Question: What about the “TGFβ-induced ECM production (Sirius Red)” value (NRK49F myofibroblasts) of the same compound?
Answer: significantly inhibited TGFβ-induced ECM production

Question: And the “diabetes induced excessive ECM accumulation (Sirius Red)” value [4]?
Answer: significantly reduced

Question: And the “fibrotic lesion (fibronectin staining) versus diabetic rats” value [5]?
Answer: smaller

Question: And the “Blood Creatinine” value [6, 11]?
Answer: 27.0 ± 2.24 µmol/L

Question: And the “Blood Glucose” value [6, 11]?
Answer: 50.31 ± 3.7 ^ mmol/L

Question: What about the “Blood Urea Nitrogen” value [6, 11] of the same compound?
Answer: 17.3 ± 1.49 mmol/L

Question: And the FeNa [6, 11]?
Answer: 0.40 ± 0.03 %

Question: What about the Fructosamine [6, 11] of the same compound?
Answer: 276 ± 11.2 µmol/L

Question: What about the GFR [6, 11] of the same compound?
Answer: 6.77 ± 1.15 mL/min/100 g

Question: And the Urinary albumin excretion [6, 11]?
Answer: 20.8 ± 9.51 mg/mL

Question: And the “Blood Creatinine” value [6, 12]?
Answer: 31.8 ± 2.94 µmol/L

Question: What about the “Blood Glucose” value [6, 12] of the same compound?
Answer: 26.45 ± 3.11 mmol/L

Question: And the “Blood Urea Nitrogen” value [6, 12]?
Answer: 18.8 ± 1.68 mmol/L

Question: What about the FeNa [6, 12] of the same compound?
Answer: 0.62 ± 0.12 %

Question: And the Fructosamine [6, 12]?
Answer: 242 ± 12.8^ μmol/L

Question: And the GFR [6, 12]?
Answer: 4.73 ± 0.69^ mL/min/100 g

Question: What about the Urinary albumin excretion [6, 12] of the same compound?
Answer: 24.3 ± 5.77^ mg/mL

Question: And the “Blood Creatinine” value [6, 13]?
Answer: 34.5 ± 2.74 µmol/L

Question: And the “Blood Glucose” value [6, 13]?
Answer: 36.6 ± 2.62 mmol/L

Question: What about the “Blood Urea Nitrogen” value [6, 13] of the same compound?
Answer: 17.3 ± 2.30 mmol/L

Question: And the FeNa [6, 13]?
Answer: 0.90 ± 0.23 %

Question: What about the Fructosamine [6, 13] of the same compound?
Answer: 252 ± 18.5^ μmol/L

Question: What about the GFR [6, 13] of the same compound?
Answer: 3.73 ± 0.49^ mL/min/100 g

Question: And the Urinary albumin excretion [6, 13]?
Answer: 21.5 ± 4.99 mg/mL

Question: What about the “renal function in diabetic rats” value ([6]; fluvoxamine treatment, specifically the long-term (7-weeks) treatment) of the same compound?
Answer: remarkably improved renal function, prevented GFR decline

Question: What about the “tubulointerstitial fibrosis after UUO (Masson's trichrome)” value [7] of the same compound?
Answer: decreased tubulointerstitial fibrosis

Question: What about the “fibrotic lesions of the lung after bleomycin (Masson trichrome)” value [8] of the same compound?
Answer: prevented almost totally the fibrotic effect of bleomycin

Question: And the “UUO-induced αSMA production in kidney” value [9]?
Answer: successfully decreased UUO-induced αSMA production

Question: And the “extent of mesangial matrix expansion (PAS)” value ([10]; all doses of fluvoxamine)?
Answer: remarkably diminished

Question: And the “prevention of renal tissue damage (PAS), comparison of regimens” value ([10]; long-term (7-weeks) fluvoxamine treatment)?
Answer: most effective in preventing renal tissue damage
